Structures can show the parent of a compound that is named as a salt.

This assay deals with T1, Smoothened (SMO) (Mus musculus, UniProt P56726).
T1 construct: C3H10T1/2 cells (ATCC #CCL-226) were split and seeded; endogenous in cells; host or cells: C3H10T1/2 (ATCC #CCL-226)
T1 sequence (P56726 33-793): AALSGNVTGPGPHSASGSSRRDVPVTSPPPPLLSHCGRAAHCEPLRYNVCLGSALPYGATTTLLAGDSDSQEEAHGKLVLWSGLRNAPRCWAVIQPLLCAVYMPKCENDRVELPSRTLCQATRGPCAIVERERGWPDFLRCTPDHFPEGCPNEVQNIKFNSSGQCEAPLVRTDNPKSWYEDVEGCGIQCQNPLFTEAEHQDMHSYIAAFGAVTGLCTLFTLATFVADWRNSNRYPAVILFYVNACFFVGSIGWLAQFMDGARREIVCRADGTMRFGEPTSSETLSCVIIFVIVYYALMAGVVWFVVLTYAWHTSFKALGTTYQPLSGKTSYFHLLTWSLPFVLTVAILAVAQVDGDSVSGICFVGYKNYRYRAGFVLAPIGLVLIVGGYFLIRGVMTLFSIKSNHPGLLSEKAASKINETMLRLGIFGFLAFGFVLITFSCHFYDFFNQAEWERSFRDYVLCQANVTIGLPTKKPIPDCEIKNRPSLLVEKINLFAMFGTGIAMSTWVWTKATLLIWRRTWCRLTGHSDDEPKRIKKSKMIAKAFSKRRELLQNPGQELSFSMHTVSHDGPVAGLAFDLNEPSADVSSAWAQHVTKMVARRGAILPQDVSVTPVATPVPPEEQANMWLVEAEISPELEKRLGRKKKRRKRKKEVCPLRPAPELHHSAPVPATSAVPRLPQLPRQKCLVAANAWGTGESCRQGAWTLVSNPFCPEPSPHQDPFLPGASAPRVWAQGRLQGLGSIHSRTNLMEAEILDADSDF
The experiment in a line: Smoothened (SMO)/Sonic Hedgehog (SHh) Transient Transcriptional Activation Assay (Gli-luciferase reporter in C3H10T1/2 cells). Type of assay: cell-based, murine. The note with it: C3H 10T1/2, 2 μM compound; transfected C3H10T1/2 cells, recombinant human SHh 250 ng/mL, 20 hours, luciferase readout; read-out: SMO CELL % INHIBITION @ 2 μM. On the procedure: As noted above, the compounds of the invention are useful as inhibitors of SMO. • Methods for determining the in vitro activity of these compounds are described below: Smoothened (SMO)/Sonic Hedgehog (SHh) Transient Transcriptional Activation Assay
On Day 1, 2×10^6 C3H10T1/2 cells (ATCC #CCL-226) were split and seeded in 12 mL of growth medium Basal Medium Eagle (BME, Invitrogen #21010-046) supplemented with 2 mM L-glutamine (Invitrogen #25030-081), 0.1 units/mL penicillin and 0.1 μg/mL streptomycin (Invitrogen #15140-122), and 10% Fetal Bovine Serum (FBS, Invitrogen #16140-071) in a T-75 flask (Costar #3376). They were allowed to attach for 4 hours at 37° C., 5% CO2. The cells were then transfected using Fugene 6 (Roch #11 814 443 001) in the following reaction: 48 μL Fugene 6 and 745 μL Opti-MEM (Invitrogen #31985-070) were mixed and allowed to sit at room temperature for 5 minutes. 8 μg of pGL4.14/mGli(CS) DNA (10× murine Gli response elements and minimal CS promoter) and 0.5 μg of pEGFP DNA (Clontech) were added, gently mixed and incubated at room temperature for 20 minutes. This entire transfection mix was then added to the T-75 flask containing the cells. The cells were incubated at 37° C., 5% CO2 for 18-24 hours.
On Day 2, the transfected cells were trypsinized and seeded into white 96 well plates (Costar #3917) in 100 μL/well of growth medium at a concentration of 20,000 cells/well. The cells were allowed to recover for 4 hours before adding serum starvation medium Dulbecco's Modified Eagle Medium (DMEM, Invitrogen #21063-029) supplemented with 2 mM L-glutamine, 0.1 units/mL penicillin and 0.1 μg/mL streptomycin, and 0.5% Calf Serum (CS, Invitrogen #26170-043). The growth media was aspirated off, and the cells were rinsed with 100 μL of starvation media. 95 μL of starvation media was then added to each well. The cells were incubated for 20 hours at 37° C., 5% CO2.
On Day 3, cells were dosed with test compounds at a final concentration ranging from 2 μM to 2 nM. Immediately after dosing cells with compounds, recombinant human sonic hedgehog (SHh, R&D Systems #1845-SH) was add to a final concentration of 250 ng/mL. A 25 μg vial of SHh was reconstituted with 250 μL PBS/0.1% BSA to give a 100 ng/μL working stock. This working stock was then diluted 1:20 in starvation media. The transfected cells were incubated with compounds and SHh for 20 hours at 37° C., 5% CO2.
Luciferase assays were conducted on Day 4 using Dual-Glo Luciferase assay system (Promega #E2940) according to Promega's protocol. Briefly, Dual-Glo luciferase reagent was made up and 100 μL were added to each well of the 96 well plate containing media. Plates were shaken at room temperature for 10 minutes, and then read on TopCount (Perkin-Elmer). The luminescence was recorded.
On to `Cc1cc(NC(=O)N[C@@H]2CCN(C)[C@@H](c3nc4ccccc4[nH]3)C2)cnc1F` [Example 40, 1-[(2R,4R)-2-(1H-benzimidazol-2-yl)-1-methylpiperidin-4-yl]-3-(6-fluoro-5-methylpyridin-3-yl)urea hydrochloride], for which the inhibition at 2 µM was found to be 106%. Regarding `Cc1ccc2nc([C@@H]3C[C@@H](NC(=O)Nc4ccc(Cl)c(C(F)(F)F)c4)CN3C(C)C)[nH]c2c1` [Example 23, 1-[4-chloro-3-(trifluoromethyl)phenyl]-3-[(3R,5S)-1-isopropyl-5-(6-methyl-1H-benzimidazol-2-yl)pyrrolidin-3-yl]urea], the inhibition at 2 µM amounted to 100%. Under `CN1CC[C@@H](NC(=O)c2ccc3c(c2)OCCO3)C[C@@H]1c1nc2ccc(Cl)cc2[nH]1` [Example 34, N-[(2R,4R)-2-(6-chloro-1H-benzimidazol-2-yl)-1-methylpiperidin-4-yl]-2,3-dihydro-1,4-benzodioxine-6-carboxamide hydrochloride] stands 107%. Under `O=C(N[C@@H]1CCN2CCn3c(nc4ccccc43)[C@H]2C1)c1ccc2c(c1)OCCO2` [Example 12, N-[(2R,13bR)-1,3,4,6,7,13b-hexahydro-2H-pyrido[2′,1′:3,4]pyrazino[1,2-a]benzimidazol-2-yl]-2,3-dihydro-1,4-benzodioxine-6-carboxamide hydrochloride] stands 64.1%; under `N#Cc1ccc(NC(=O)N[C@@H]2CCN(Cc3ccccc3)[C@@H](c3nc4ccccc4[nH]3)C2)cc1` [Example 61, 1-[(2R,4R)-2-(1H-benzimidazol-2-yl)-1-benzylpiperidin-4-yl]-3-(4-cyanophenyl)urea], 99.5%; under `CN1CC[C@@H](NC(=O)Nc2ccc(C#N)cc2)C[C@@H]1c1nc2cc(F)ccc2[nH]1` [Example 51, 1-(4-cyanophenyl)-3-[(2R,4R)-2-(5-fluoro-1H-benzimidazol-2-yl)-1-methylpiperidin-4-yl]urea hydrochloride], 105%.

`CC(C)(C)OC(=O)N1C[C@H](NC(=O)Nc2ccc(Cl)c(C(F)(F)F)c2)C[C@H]1c1nc2ccccc2[nH]1` [Example 24, tert-butyl (2S,4R)-2-(1H-benzimidazol-2-yl)-4-[({[4-chloro-3-(trifluoromethyl)phenyl]amino}carbonyl)amino]pyrrolidine-1-carboxylate]: the inhibition at 2 µM is 63.1%. Under `CN1CC[C@@H](NC(=O)Nc2ccc(-c3ccccc3)s2)C[C@@H]1c1nc2ccccc2[nH]1` [Example 90, 1-[(2R,4R)-2-(1H-benzimidazol-2-yl)-1-methylpiperidin-4-yl]-3-(5-phenyl-2-thienyl)urea hydrochloride] stands 87.9%.

Consider `Cc1ccc(NC(=O)N[C@@H]2CCN(C)[C@@H](c3nc4cc(C(F)(F)F)ccc4[nH]3)C2)cn1` [Example 128, 1-(6-methylpyridin-3-yl)-3-{(2R,4R)-1-methyl-2-[5-(trifluoromethyl)-1H-benzimidazol-2-yl]piperidin-4-yl}urea hydrochloride], for which the inhibition at 2 µM was found to be 102%. In the case of `CN(C)c1ccc(NC(=O)N[C@@H]2CCN(C)[C@@H](c3nc4ccccc4[nH]3)C2)cc1` [Example 56, 1-[(2R,4R)-2-(1H-benzimidazol-2-yl)-1-methylpiperidin-4-yl]-3-[4-(dimethylamino)phenyl]urea hydrochloride] it was 104%; in that of `CN1CC[C@@H](NC(=O)N2CCOCC2)C[C@@H]1c1nc2ccccc2[nH]1` [Example 95, N-[(2R,4R)-2-(1H-benzimidazol-2-yl)-1-methylpiperidin-4-yl]morpholine-4-carboxamide hydrochloride], 78.7%; in that of `CCN1CC[C@@H](NC(=O)Nc2ccc(C#N)cc2)C[C@@H]1c1nc2ccccc2[nH]1` [Example 46, 1-[(2R,4R)-2-(1H-benzimidazol-2-yl)-1-ethylpiperidin-4-yl]-3-(4-cyanophenyl)urea], 105%. Turning to `CN1CC[C@@H](NC(=O)c2cnn3ccccc23)C[C@@H]1c1nc2ccccc2[nH]1` [Example 115, N-[(2R,4R)-2-(1H-benzimidazol-2-yl)-1-methylpiperidin-4-yl]pyrazolo[1,5-a]pyridine-3-carboxamide trifluoroacetate], the inhibition at 2 µM amounted to 69.6%. Regarding `Cc1ccc2[nH]c([C@H]3C[C@H](NC(=O)Nc4ccc(C(F)(F)F)nc4)CCN3C)nc2c1` [Example 65, 1-[(2R,4R)-1-methyl-2-(5-methyl-1H-benzimidazol-2-yl)piperidin-4-yl]-3-[6-(trifluoromethyl)pyridin-3-yl]urea hydrochloride], the inhibition at 2 µM stood at 103%. Under `CN1CC[C@@H](NC(=O)C(F)(F)c2ccccc2)C[C@@H]1c1nc2ccccc2[nH]1` [Example 122, N-[(2R,4R)-2-(1H-benzimidazol-2-yl)-1-methylpiperidin-4-yl]-2(2-difluoro-2-phenylacetamide trifluoroacetate] stands 57.5%; under `CN(C)c1ccc2[nH]c([C@H]3C[C@H](NC(=O)c4ccc5c(c4)OCCO5)CCN3C)nc2c1` [Example 27, N-{(2R,4R)-2-[5-(dimethylamino)-1H-benzimidazol-2-yl]-1-methylpiperidin-4-yl}-2,3-dihydro-1,4-benzodioxine-6-carboxamide hydrochloride], 108%; under `CN1CC[C@@H](NC(=O)c2cc3c(cc2Cl)OCCO3)C[C@@H]1c1nc2ccccc2[nH]1` [Example 147, N-[(2R,4R)-2-(1H-benzimidazol-2-yl)-1-methylpiperidin-4-yl]-7-chloro-2,3-dihydro-1,4-benzodioxine-6-carboxamide triflouroacetate], 69.5%. On to `CN1CC[C@@H](NC(=O)Nc2ccc(C(F)(F)F)nc2)C[C@@H]1c1nc2ccc(Cl)cc2[nH]1` [Example 73, 1-[(2R,4R)-2-(6-chloro-1H-benzimidazol-2-yl)-1-methylpiperidin-4-yl]-3-[6-(trifluoromethyl)pyridin-3-yl]urea hydrochloride], for which the inhibition at 2 µM amounted to 101%.

`Cc1ccc2[nH]c([C@H]3C[C@H](NC(=O)Nc4ccc(C)nc4)CCN3C3CCC3)nc2c1` [Example 151, 1-[(2R,4R)-1-cyclobutyl-2-(5-methy-1H-benzimidazol-2-yl)piperidin-4-yl]-3-(6-methylpyridin-3-yl)urea triflouroacetate]: the inhibition at 2 µM came out at 107%. In the case of `Cc1cc(C(=O)N[C@@H]2CCN(C)[C@@H](c3nc4ccccc4[nH]3)C2)n(C(C)(C)C)n1` [Example 124, N-[(2R,4R)-2-(1H-benzimidazol-2-yl)-1-methylpiperidin-4-yl]-1-tert-butyl-3-methyl-1H-pyrazole-5-carboxamide trifluoroacetate] it was 50.6%; in that of `Cc1ccc(NC(=O)N[C@@H]2CCN(C3CCC3)[C@@H](c3nc4ccccc4[nH]3)C2)cn1` [Example 150, 1-[(2R,4R)-2-(1H-benzimidazol-2-yl)-1-cyclobutyl-piperidin-4-yl]-3-(6-methylpyridin-3-yl)urea triflouroacetate], 106%. Consider `Cc1cncc(NC(=O)N[C@@H]2CCN(C)[C@@H](c3nc4ccccc4[nH]3)C2)c1` [Example 69, 1-[(2R,4R)-2-(1H-benzimidazol-2-yl)-1-methylpiperidin-4-yl]-3-(5-methylpyridin-3-yl)urea hydrochloride], for which the inhibition at 2 µM is 102%. In the case of `CN1CC[C@@H](NC(=O)Nc2ccc(Cl)c(C(F)(F)F)c2)C[C@@H]1c1nc2ccccc2[nH]1` [Example 26, 1-[(2R,4R)-2-(1H-benzimidazol-2-yl)-1-methylpiperidin-4-yl]-3-[4-chloro-3-(trifluoromethyl)phenyl]urea hydrochloride] it was 109%; in that of `CN1CC[C@@H](NC(=O)c2ccc(C#N)cc2)C[C@@H]1c1nc2ccccc2[nH]1` [Example 121, N-[(2R,4R)-2-(1H-benzimidazol-2-yl)-1-methylpiperidin-4-yl]-4-cyanobenzamide trifluoroacetate], 62.3%.
